The results in this text go back to ChEMBL document CHEMBL1201862, “PubChem BioAssay data set” (2004).

In test [1] the target is Latent membrane protein 1 (Human herpesvirus 4 (strain B95-8), UniProt P03230). In words: TES1-eGFP NF-kB reporter inhibition versus Tet-On dsRED, dose response, selectivity assay for LMP1 NF-kB inhibitor project, imaging, HEK293T, dual-color eGFP/dsRED, cherry-picks (AID 588398). Format: functional, cell-based.
Another test concerns HEK293. Put plainly: inhibitors of LMP1-driven NF-kB reporter, dose response, cell-based, HEK293, luciferase, cherry-pick (AID 588343). The settings on record: Homo sapiens. It counts as functional.
Test [2] concerns the target T1, Sentrin-specific protease 8 (Homo sapiens, UniProt Q96LD8).
T1 sequence (Q96LD8 whole entry): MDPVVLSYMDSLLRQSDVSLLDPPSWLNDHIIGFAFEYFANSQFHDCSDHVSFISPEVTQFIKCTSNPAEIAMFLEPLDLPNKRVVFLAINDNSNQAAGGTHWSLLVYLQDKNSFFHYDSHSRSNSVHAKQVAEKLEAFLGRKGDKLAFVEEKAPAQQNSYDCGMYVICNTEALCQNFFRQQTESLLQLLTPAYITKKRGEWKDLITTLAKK
Put plainly: SENP8 protease inhibitors, SAR follow-up, biochemical, luminescence (AID 504501). It counts as functional.

The target in test [3] is T2, Sentrin-specific protease 6 (Homo sapiens, UniProt Q9GZR1).
T2 sequence (Q9GZR1 whole entry): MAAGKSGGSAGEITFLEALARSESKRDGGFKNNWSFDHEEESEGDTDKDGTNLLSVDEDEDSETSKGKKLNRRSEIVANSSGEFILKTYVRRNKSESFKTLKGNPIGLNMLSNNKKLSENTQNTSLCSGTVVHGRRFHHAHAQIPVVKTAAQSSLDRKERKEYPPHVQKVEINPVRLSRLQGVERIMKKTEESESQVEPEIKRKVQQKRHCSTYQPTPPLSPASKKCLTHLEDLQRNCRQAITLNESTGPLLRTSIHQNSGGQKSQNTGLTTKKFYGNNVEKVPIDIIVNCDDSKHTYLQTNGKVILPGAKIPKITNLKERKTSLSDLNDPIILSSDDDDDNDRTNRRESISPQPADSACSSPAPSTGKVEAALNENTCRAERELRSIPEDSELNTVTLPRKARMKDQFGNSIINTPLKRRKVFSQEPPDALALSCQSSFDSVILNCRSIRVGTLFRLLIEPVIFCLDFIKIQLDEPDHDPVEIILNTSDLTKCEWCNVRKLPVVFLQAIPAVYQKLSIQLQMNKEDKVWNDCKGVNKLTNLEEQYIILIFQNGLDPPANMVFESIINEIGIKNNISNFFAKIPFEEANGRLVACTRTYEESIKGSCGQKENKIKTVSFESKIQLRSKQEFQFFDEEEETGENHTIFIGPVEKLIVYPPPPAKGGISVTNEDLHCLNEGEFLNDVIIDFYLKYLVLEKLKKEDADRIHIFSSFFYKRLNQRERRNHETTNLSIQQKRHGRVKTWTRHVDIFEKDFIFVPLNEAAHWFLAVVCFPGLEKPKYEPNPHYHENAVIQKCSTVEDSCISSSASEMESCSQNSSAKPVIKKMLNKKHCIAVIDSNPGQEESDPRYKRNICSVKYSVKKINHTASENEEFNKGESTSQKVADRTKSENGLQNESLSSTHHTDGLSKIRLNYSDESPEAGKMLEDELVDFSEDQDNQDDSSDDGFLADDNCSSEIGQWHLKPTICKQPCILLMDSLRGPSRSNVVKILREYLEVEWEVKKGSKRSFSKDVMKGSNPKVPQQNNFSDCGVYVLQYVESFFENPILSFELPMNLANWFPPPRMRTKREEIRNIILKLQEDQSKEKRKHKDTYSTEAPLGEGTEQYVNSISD
In words: SAR Analysis of small molecule inhibitors of Sentrin-specific protease 6 (SENP6) using a Luminescent assay. [Related pubchem assays (depositor defined):AID2582, AID2599]. Format: functional.

The target of test [4] is T3, Sentrin-specific protease 7 (Homo sapiens, UniProt Q9BQF6).
T3 sequence (Q9BQF6 whole entry): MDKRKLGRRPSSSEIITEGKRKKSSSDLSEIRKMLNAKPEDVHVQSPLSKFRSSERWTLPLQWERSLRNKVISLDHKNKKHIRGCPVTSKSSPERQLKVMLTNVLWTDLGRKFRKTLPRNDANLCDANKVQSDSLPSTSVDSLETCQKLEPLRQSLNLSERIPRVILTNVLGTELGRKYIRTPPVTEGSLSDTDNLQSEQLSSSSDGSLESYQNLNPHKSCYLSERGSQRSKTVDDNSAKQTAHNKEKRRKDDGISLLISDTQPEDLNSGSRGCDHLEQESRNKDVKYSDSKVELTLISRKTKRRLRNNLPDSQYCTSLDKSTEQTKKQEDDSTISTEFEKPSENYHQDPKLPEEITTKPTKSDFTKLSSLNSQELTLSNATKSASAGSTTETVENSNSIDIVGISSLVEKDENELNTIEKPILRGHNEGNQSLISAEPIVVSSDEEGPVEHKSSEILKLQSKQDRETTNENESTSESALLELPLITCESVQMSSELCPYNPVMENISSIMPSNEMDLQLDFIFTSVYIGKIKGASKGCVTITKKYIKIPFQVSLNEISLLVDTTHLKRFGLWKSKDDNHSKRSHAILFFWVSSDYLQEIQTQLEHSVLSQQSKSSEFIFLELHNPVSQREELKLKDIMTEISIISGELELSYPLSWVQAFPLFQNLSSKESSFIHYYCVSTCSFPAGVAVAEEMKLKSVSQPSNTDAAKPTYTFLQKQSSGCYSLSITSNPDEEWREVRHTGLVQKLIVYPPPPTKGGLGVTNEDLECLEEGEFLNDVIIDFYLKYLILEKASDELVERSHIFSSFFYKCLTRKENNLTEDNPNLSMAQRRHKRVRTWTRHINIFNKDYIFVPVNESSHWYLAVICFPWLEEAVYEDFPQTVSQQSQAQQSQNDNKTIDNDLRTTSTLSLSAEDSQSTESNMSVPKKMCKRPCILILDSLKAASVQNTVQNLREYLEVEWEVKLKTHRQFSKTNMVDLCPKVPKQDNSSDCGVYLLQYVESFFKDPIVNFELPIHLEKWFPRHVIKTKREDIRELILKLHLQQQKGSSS
In words: SENP7 protease inhibitors, SAR follow-up, biochemical, luminescence (AID 504497). It counts as functional.

Test [5] addresses T4, Caspase-3 (Homo sapiens, UniProt P42574).
T4 sequence (P42574 whole entry): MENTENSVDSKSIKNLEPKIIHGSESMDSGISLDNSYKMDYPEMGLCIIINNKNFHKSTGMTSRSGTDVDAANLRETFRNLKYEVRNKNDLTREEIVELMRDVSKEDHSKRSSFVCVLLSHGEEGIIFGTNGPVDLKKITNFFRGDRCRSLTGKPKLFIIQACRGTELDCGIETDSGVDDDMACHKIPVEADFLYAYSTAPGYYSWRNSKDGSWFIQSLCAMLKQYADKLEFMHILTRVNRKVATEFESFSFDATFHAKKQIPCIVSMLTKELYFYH
In words: SAR Analysis of small molecule inhibitors of Sentrin-specific proteases (SENPs) using a Caspase-3 Selectivity assay. [Related pubchem assays (depositor defined):AID2540, AID2599, AID434973, AID489001]. It counts as functional.

The target in test [6] is T3, Sentrin-specific protease 7. Put plainly: SENP7 protease inhibitors, SAR follow-up, biochemical, luminescence, set 2 (AID 588600). Format: functional.
Test [7] addresses T2, Sentrin-specific protease 6. In words: SENP6 protease inhibitors, SAR follow-up, biochemical, luminescence, set 2 (AID 588598). Format: functional.
Test [8] addresses T4, Caspase-3. Put plainly: caspase-3 inhibitors as off-family protease, SAR follow-up, selectivity assay for SENP protease inhibitor project, biochemical, luminescence, set 2 (AID 588599). Format: functional.
For test [9], the target named is T1, Sentrin-specific protease 8. Put plainly: SENP8 protease inhibitors, SAR follow-up, biochemical, luminescence, set 2 (AID 588601). It counts as functional.
Test [10] in a line: cytotoxicity toward NIH3T3 fibroblasts, dose response, counter-screen, cell-based, ATP luminescence, mouse fibroblasts (AID 2010).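 Further: cells exposed to compound for about 90 hours before reading.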 Format: functional.
Test [11] is described as follows: inhibitors of intracellular T. cruzi replication, confirmation, NIH3T3 host cells, beta-gal luminescence (AID 2044).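 Further: intracellular parasites grown in NIH/3T3 mouse fibroblasts as host cells; luminescent beta-galactosidase reporter signal from transgenic T. cruzi replicating inside host cells; inhibitors lower the luminescence signal.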 Format: functional, cell-based.
For test [12], the target named is V-type proton ATPase subunit c' (Saccharomyces cerevisiae S288c, UniProt P32842). In words: Dose Response with BCECF Assay for V-ATPase inhibitors that increase vacuolar pH, Powder Set 1. Format: functional. As to conditions: read-out: EC50_MICROM.
Test [13] has as its target T5, Microphthalmia-associated transcription factor (Homo sapiens, UniProt O75030).
T5 sequence (O75030 whole entry): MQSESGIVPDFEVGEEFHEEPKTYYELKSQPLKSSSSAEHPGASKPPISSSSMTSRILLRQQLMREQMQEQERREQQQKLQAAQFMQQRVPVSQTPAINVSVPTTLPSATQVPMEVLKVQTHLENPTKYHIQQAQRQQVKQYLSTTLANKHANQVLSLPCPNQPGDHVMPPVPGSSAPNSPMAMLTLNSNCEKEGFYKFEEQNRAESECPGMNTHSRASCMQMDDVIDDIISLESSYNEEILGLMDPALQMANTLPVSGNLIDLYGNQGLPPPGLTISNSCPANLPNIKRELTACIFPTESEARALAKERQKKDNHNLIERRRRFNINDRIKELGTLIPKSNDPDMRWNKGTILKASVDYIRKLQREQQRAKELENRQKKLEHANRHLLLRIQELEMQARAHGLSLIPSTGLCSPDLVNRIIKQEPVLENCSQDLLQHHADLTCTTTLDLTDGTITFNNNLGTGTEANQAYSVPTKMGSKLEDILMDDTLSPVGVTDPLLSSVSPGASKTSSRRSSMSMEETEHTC
In words: TRPM1 promoter luciferase signal decrease, dose response, MITF inhibitor project, cell-based, SK-MEL-5, cherry-picked, set 3 (AID 493073).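 Further: SK-MEL-5 melanoma cells with luciferase driven by the MITF target TRPM1 promoter.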 It counts as functional.

The source made the active and inactive calls. For most assays here, no stated cut-off is given here; in the data, actives have a measured IC50 and inactives only a lower limit.

Latent membrane protein 1, sequence (P03230 whole entry): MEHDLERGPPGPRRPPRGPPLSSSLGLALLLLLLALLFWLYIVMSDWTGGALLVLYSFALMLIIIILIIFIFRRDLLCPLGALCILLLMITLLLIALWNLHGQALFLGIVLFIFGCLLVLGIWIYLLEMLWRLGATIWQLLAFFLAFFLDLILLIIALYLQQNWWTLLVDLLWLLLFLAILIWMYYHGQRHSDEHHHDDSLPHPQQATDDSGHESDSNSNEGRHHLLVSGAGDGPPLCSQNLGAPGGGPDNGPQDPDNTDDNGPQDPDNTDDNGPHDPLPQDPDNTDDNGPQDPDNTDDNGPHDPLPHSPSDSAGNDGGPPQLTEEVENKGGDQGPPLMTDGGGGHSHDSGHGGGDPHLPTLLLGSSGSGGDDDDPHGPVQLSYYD
V-type proton ATPase subunit c', sequence (P32842 whole entry): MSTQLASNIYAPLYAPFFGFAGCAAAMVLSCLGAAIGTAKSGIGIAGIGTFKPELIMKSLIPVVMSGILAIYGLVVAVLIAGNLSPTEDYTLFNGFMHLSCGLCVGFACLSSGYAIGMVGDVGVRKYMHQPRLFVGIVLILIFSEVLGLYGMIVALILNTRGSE

The term AC50 denotes the concentration giving half of the maximal activity seen. Turning to `COc1cccc(CNc2ncnc3ccc(-c4c(C)noc4C)cc23)c1`, the AC50 in test [1] is 14.1 µM (active); in the test with HEK293, 10.3 µM (active).
As a reminder, the IC50 is the concentration needed to halve the response being measured. For the compound `CC(N/C=C1/C(=O)N(c2nc3ccccc3s2)N=C1C(F)(F)F)C12CC3CC(CC(C3)C1)C2` (centres undefined), the half-maximal inhibitory concentration (IC50) in test [2] is 86.9 µM (active); in test [3], 77.3 µM (active); in test [4], 87.3 µM (active); at Caspase-3 [5], 40.7 µM (active).
Take `O=C(Cc1ccc(C(F)(F)F)cc1[N+](=O)[O-])N/N=C/c1c[nH]c2ccccc12`: the IC50 (in test [6]; in test [7]; at Caspase-3 [8]; in test [9]) was > 99 µM (inactive) each time.
For `COc1ccc2nc(N3CCN(C(=O)c4ccc([N+](=O)[O-])o4)CC3)sc2c1`, the values for the EC50 in test [10], in [11] and in test [12] were 39.5 µM (active), 0.434 µM (active) and 0.728 µM (active), respectively. In addition, the AC50 in test [13] is 5.81 µM (active).
